Assay results taken from ChEMBL document CHEMBL1143940, “Eupalinin A isolated from Eupatorium chinense L. induces autophagocytosis in human leukemia HL60 cells” (Bioorg Med Chem, 2008).
Activity calls are given as the source filed them. No cut-off for these calls is given here.

Legend:
HL-60 [1] = test: Induction of apoptosis in human HL60 cells assessed as decrease in Bax levels at 4 uM after 12 hrs; type: functional, cell-based
HL-60 [2] = test: Effect on caspase 3 activity in human HL60 cells at 4 uM; type: functional, cell-based
HL-60 [3] = test: Increase in intracellular ROS level in human HL60 cells at 4 uM after 12 hrs; type: functional, cell-based
HL-60 [4] = test: Induction of autophagy in human HL60 cells assessed as increase in lipidated microtubule-associated-protein light chain 3 subunit II levels at 4 uM after 3 to 6 hrs; type: functional, cell-based
HL-60 [5] = test: Effect on caspase 9 activity in human HL60 cells at 4 uM; type: functional, cell-based
HL-60 [6] = test: Induction of cell death in human HL60 cells assessed as formation of autophagosomes at 4 uM after 6 hrs; type: functional, cell-based
HL-60 [7] = test: Disruption of mitochondrial membrane potential in human HL60 cells at 4 uM after 12 hrs; type: functional, cell-based
HL-60 [8] = test: Induction of DNA fragmentation in human HL60 cells at 4 uM; type: functional, cell-based; details: TDE = time-dependent effect
HL-60 [9] = test: Effect on caspase 8 activity in human HL60 cells at 4 uM; type: functional, cell-based
HL-60 [10] = test: Induction of nuclear condensation in human HL60 cells at 4 uM after 24 hrs by Hoechst33342 staining method; type: functional, cell-based
HL-60 [11] = test: Induction of apoptosis in human HL60 cells at 4 uM in presence of 100 uM caspase inhibitor ZVADFMK by Trypan blue exclusion test; type: functional, cell-based
HL-60 [12] = test: Induction of autophagy in human HL60 cells at 4 uM after 12 hrs by MDC staining; type: functional, cell-based
HL-60 [13] = test: Induction of autophagy in human HL60 cells at 4 uM in presence of PI3K inhibitor LY-294002; type: functional, cell-based
HL-60 [14] = test: Induction of autophagy in human HL60 cells at 4 uM in presence of PI3K inhibitor 3-methyladenine; type: functional, cell-based
HL-60 [15] = test: Induction of apoptosis in human HL60 cells assessed as increase in phospho-Bcl2 at 4 uM after 12 hrs; type: functional, cell-based
HL-60 [16] = test: Induction of apoptosis in human HL60 cells assessed as increase in phospho-Bcl-xl levels at 4 uM after 12 hrs; type: functional, cell-based
HL-60 [17] = test: Increase in JNK protein level in human HL60 cells at 4 uM by Western blot; type: functional, cell-based
HL-60 [18] = test: Cytotoxicity against human HL60 cells; type: functional, cell-based
HL-60 [19] = test: Induction of apoptosis in human HL60 cells assessed as increase in phospho-Bad levels at 4 uM after 12 hrs; type: functional, cell-based
HL-60 [20] = test: Effect on caspase 2 activity in human HL60 cells at 4 uM; type: functional, cell-based
HL-60 [21] = test: Increase in p38 MAPK protein level in human HL60 cells at 4 uM by Western blot; type: functional, cell-based
[22] = molecular target: RAC-alpha serine/threonine-protein kinase (Homo sapiens) (UniProt P31749); test: Increase in Akt phosphorylation in human HL60 cells at 4 uM after 48 hrs; type: cell-based; details: HL-60
Chain of RAC-alpha serine/threonine-protein kinase (Homo sapiens) (P31749 whole entry): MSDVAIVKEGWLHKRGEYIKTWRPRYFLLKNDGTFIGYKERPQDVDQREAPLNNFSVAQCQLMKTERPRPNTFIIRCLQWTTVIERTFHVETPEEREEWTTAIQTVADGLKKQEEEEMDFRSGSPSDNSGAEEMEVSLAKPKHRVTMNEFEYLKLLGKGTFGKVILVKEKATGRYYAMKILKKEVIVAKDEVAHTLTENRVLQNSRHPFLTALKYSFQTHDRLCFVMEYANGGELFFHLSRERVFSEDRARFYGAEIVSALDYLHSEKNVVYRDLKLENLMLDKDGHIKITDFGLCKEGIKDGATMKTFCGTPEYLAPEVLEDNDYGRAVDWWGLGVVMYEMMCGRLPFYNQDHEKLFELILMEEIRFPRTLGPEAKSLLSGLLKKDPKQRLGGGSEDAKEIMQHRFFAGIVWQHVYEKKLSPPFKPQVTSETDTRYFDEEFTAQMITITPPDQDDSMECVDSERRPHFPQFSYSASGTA

Activity [22]: Active
Structure (SMILES): C=C1C(=O)O[C@@H]2/C=C(/C)[C@@H](OC(C)=O)C[C@H]3O[C@]3(C)C[C@@H](OC(=O)/C(=C/C)CO)[C@@H]12 [EUPALININ A]
Activity (HL-60 [1]): Active
Activity (HL-60 [2]): Active
Activity (HL-60 [3]): Active
Activity (HL-60 [4]): Active
Activity (HL-60 [5]): Active
Activity (HL-60 [6]): Active
Activity (HL-60 [7]): Active
Activity (HL-60 [8]): tde
Activity (HL-60 [9]): Active
Activity (HL-60 [10]): Active
Activity (HL-60 [11]): inactive
Activity (HL-60 [12]): Active
Activity (HL-60 [13]): Active
Activity (HL-60 [14]): Active
Activity (HL-60 [15]): Active
Activity (HL-60 [16]): Active
Activity (HL-60 [17]): Active
IC50 (HL-60 [18]): 2400 nM
Activity (HL-60 [19]): Active
Activity (HL-60 [20]): Active
Activity (HL-60 [21]): Active
